Values of other authors as cited in patent publication US20200000760A1, “METHOD FOR TREATING OVERACTIVE BLADDERS AND A DEVICE FOR STORAGE AND ADMINISTRATION OF TOPICAL OXYBUTYNIN COMPOSITIONS” (Allergan Sales, LLC, priority 2009, published 2020).

Key:
[1] = transdermal administration compared to oral administration
[2] = transdermal administration compared to oral administration; remark: listed apart in the source

oxybutynin:desethyloxybutynin ratio in the plasma [1]: reduced
SMILES: CCN(CC)CC#CCOC(=O)C(O)(c1ccccc1)C1CCCCC1 (centres unmarked) [oxybutynin]
adverse events [2]: less adverse events
